Marks after values point to notes of the source that are not given here.
Assays:
[1] = test system: GRO-α induced chemotaxis of PMNs; assay: GRO-α (CXCL1) induced chemotaxis of human PMNs; format: cell-based; conditions: compound at 10^−8 M; for inhibition at 0.01 µM: Homo sapiens
Experimental: (§1) The compounds of the invention of formula (I) were evaluated in vitro for their ability to inhibit chemotaxis of polymorphonucleate leukocytes (hereinafter referred to as PMNs) and monocytes induced by the fractions of CXCL8 and GRO-α. For this purpose, in order to isolate the PMNs from heparinized human blood, taken from healthy adult volunteers, mononucleates were removed by means of sedimentation on dextran (W. J. Ming et al., J. Immunol., 138, 1469, 1987). The cell vitality was calculated by exclusion with Trypan blue, whilst the ratio of the circulating polymorphonucleates was estimated on the cytocentrifugate after staining with Diff Quick.
GRO-α induced chemotaxis inhibition was evaluated in an analogous assay.
(§2) In the chemotaxis experiments, the PMNs were incubated with the compounds of the invention of formula (I) for 15′ at 37° C. in an atmosphere containing 5% CO2. During the chemotaxis assay (W. Falket et al., J. Immunol. Methods, 33, 239, 1980) PVP-free filters with a porosity of 5 μm and microchambers suitable for replication were used.
(§3) The compounds of the invention in formula (I) were evaluated at a concentration ranging between 10^−6 and 10^−10 M; for this purpose they were added, at the same concentration, both to the lower pores and the upper pores of the microchamber. Evaluation of the ability of the compounds of the invention of formula (I) to inhibit the chemotaxis of human monocytes was carried out according to a disclosed method (J. Van Damme et al., Eur. J. Immunol., 19, 2367, 1989).

[2] = test system: CXCL8 induced chemotaxis of PMNs; assay: CXCL8 induced chemotaxis of human PMNs; format: cell-based; conditions: CXCL8 10^−9 M; for inhibition at 0.01 µM / inhibition at 0.001 µM: Homo sapiens; for inhibition at 0.01 µM: read-out: CXCL8 (% inhibition), tested at 10^−8 M; for inhibition at 0.001 µM / CXCL8 (% inhibition at 10^−9 M): compound at 10^−9 M
Experimental: as §1
In the CXCL8 induced chemotaxis assay human recombinant CXCL8 (Pepro Tech) was used as stimulating agent in the chemotaxis experiments: the lyophilized protein was dissolved in a volume of HBSS containing 0.2% bovin serum albumin (BSA) in order to obtain a stock solution having a concentration of 10^−5 M to be diluted in HBSS to a concentration of 10^−9 M, for the chemotaxis assays.
as §2, §3

[3] = test system: transient cerebral ischemia induced by occlusion of the middle cerebral artery; assay: Transient cerebral ischemia by middle cerebral artery (MCA) occlusion in rats; format: in vivo; conditions: short-term effect (24 hours)
Experimental: The compounds of the present invention are particularly useful in the prevention and treatment of damages caused by ischemia/reperfusion, specifically in the protection from the functional injury induced by temporary cerebral middle cerebral artery (MCA) occlusion. Specifically, compound 3a was evaluated in terms of efficacy in a model of transient cerebral ischemia induced in rats by occlusion of the middle cerebral artery (MCA). The short-term effect (24 hours) of 3a on cerebral myeloperoxidase (MPO) activity, a marker of PMN infiltration, brain damage and neurological deficits, was investigated.

[4] = compound at 10^−8 M (footnote *)

SMILES | inhibition at 0.01 µM [1] [%] | inhibition at 0.001 µM [2] [%] | other results
C[C@H](NC(=O)[C@@H](C)c1ccc(Nc2nc(C(F)(F)F)co2)cc1)C(=O)O [Compound 24, (2S)-2-{[(2S)-2-(4-{[4-(Trifluoromethyl)-1,3-oxazol-2-yl]amino}phenyl)propanoyl]amino}propanoic acid] | 34 ± 8 |  | inhibition at 0.01 µM [2, 4]: 54 ± 12%
C[C@H](C(=O)O)c1ccc(Nc2nc(C(F)(F)F)cs2)cc1 [Compound 3, (2S)-2-(4-{[4-(Trifluoromethyl)-1,3-thiazol-2-yl]amino}phenyl)propanoic acid] | 58 ± 6 | 66 ± 11 | 
Cc1csc(Nc2ccc([C@H](C)C(=O)O)cc2)n1 [Compound 5, (2S)-2-{4-[(4-Methyl-1,3-thiazol-2-yl)amino]phenyl}propanoic acid] | 38 ± 10 | 40 ± 11 | 
CC(C)(C(=O)O)c1ccc(Nc2nc(C(F)(F)F)cs2)cc1 [Compound 2, 2-Methyl-2-(4-{[4-(trifluoromethyl)-1,3-thiazol-2-yl]amino}phenyl)propanoic acid] | 42 ± 9 | 56 ± 10 | 
C[C@H](C(=O)NS(C)(=O)=O)c1ccc(Nc2nc(C(F)(F)F)co2)cc1 [Compound 21, (2S)—N-(Methylsulfonyl)-2-(4-{[4-(trifluoromethyl)-1,3-oxazol-2-yl]amino}phenyl) propanamide] |  |  | CXCL1 (% inhibition at 10^−8 M) [1]: 37 ± 2%; CXCL8 (% inhibition at 10^−9 M) [2]: 43 ± 6%
C[C@H](C(N)=O)c1ccc(Nc2nc(C(C)(C)C)cs2)cc1 [Compound 15, (2S)-2-{4-[(4-tert-Butyl-1,3-thiazol-2-yl)amino]phenyl}propanamide] | 45 ± 10 | 48 ± 8 | 
CC(C)[C@H](NC(=O)[C@@H](C)c1ccc(Nc2nc(C(F)(F)F)cs2)cc1)C(=O)O [Compound 17, (2S)-3-Methyl-2-{[(2S)-2-(4-{[4-(trifluoromethyl)-1,3-thiazol-2-yl]amino}phenyl)propanoyl]amino}butanoic acid] | 40 ± 12 | 39 ± 2 | melting point: 99 to 101 °C
C[C@H](C(=O)[O-])c1ccc(Nc2nc(C(F)(F)F)cs2)cc1.[Na+] [Compound 3a, Sodium (2S)-2-(4-{[4-(trifluoromethyl)-1,3-thiazol-2-yl]amino}phenyl)propanoate] |  |  | PMN infiltrate (cerebral myeloperoxidase (MPO) activity) [3]: efficacious in reducing PMN infiltrate; infarct size (brain damage) [3]: efficacious in reducing; neurological functions (neurological deficits) [3]: improving significantly neurological functions; CXCL1 (% inhibition at 10^−8 M) [1]: 55 ± 8%; CXCL8 (% inhibition at 10^−9 M) [2]: 64 ± 9%
CC(C(=O)O)c1ccc(N(C)c2nc(C(F)(F)F)cs2)cc1 (stereo not drawn) [Compound 8, 2-(4-{Methyl[4-(trifluoromethyl)-1,3-thiazol-2-yl]amino}phenyl)propanoic acid] | 39 ± 10 |  | inhibition at 0.01 µM [2, 4]: 45 ± 5%
C[C@H](C(=O)NS(C)(=O)=O)c1ccc(Nc2nc(C(F)(F)F)cs2)cc1 [Compound 11, (2S)—N-(Methylsulfonyl)-2-(4-{[4-(trifluoromethyl)-1,3-thiazol-2yl]amino}phenyl) propanamide] | 39 ± 7 | 54 ± 16 | 
C[C@H](C(=O)O)c1ccc(N(C)c2nc(C(F)(F)F)cs2)cc1 [Compound 9, (2S)-2-(4-{methyl[4-(trifluoromethyl)-1,3-thiazol-2-yl]amino}phenyl)propanoic acid] | 40 ± 12 | 41 ± 7 | 
C[C@H](C(N)=O)c1ccc(Nc2nc(C(F)(F)F)cs2)cc1 [Compound 13] | 44 ± 9 | 47 ± 3 | melting point: 204 to 205 °C
Cc1csc(Nc2ccc(C(C)C(=O)O)cc2)n1 (stereo not drawn) [Compound 4, 2-{4-[(4-Methyl-1,3-thiazol-2-yl)amino]phenyl}propanoic acid] | 45 ± 10 |  | inhibition at 0.01 µM [2, 4]: 46 ± 6%
C[C@H](C(=O)NS(=O)(=O)C(F)(F)F)c1ccc(Nc2nc(C(F)(F)F)cs2)cc1 [Compound 12] |  |  | CXCL1 (% inhibition at 10^−8 M) [1]: 30 ± 7%; CXCL8 (% inhibition), tested at 10^−8 M [2, 4]: 48 ± 13* %
C[C@H](C(=O)NO)c1ccc(Nc2nc(C(F)(F)F)cs2)cc1 [Compound 10, (2S)—N-Hydroxy-2-(4-{[4-(trifluoromethyl)-1,3-thiazol-2-yl]amino}phenyl) propanamide] | 47 ± 12 | 51 ± 10 | 
C[C@H](C(N)=O)c1ccc(N(C)c2nc(C(F)(F)F)cs2)cc1 [Compound 14, (2S)-2-(4-{Methyl[4-(trifluoromethyl)-1,3-thiazol-2-yl]amino}phenyl)propanamide] | 34 ± 13 | 45 ± 14 | 
C[C@H](C(=O)O)c1ccc(Nc2nc(C(C)(C)C)cs2)cc1 [Compound 7, (2S)-2-{4-[(4-tert-Butyl-1,3-thiazol-2-yl)amino]phenyl}propanoic acid] | 45 ± 10 | 50 ± 8 | 
C[C@H](C(N)=O)c1ccc(Nc2nc(C(F)(F)F)co2)cc1 [Compound 22, (2S)-2-(4-{[4-(Trifluoromethyl)-1,3-oxazol-2-yl]amino}phenyl) propanamide] | 49 ± 6 | 58 ± 5 | 
C[C@H](C(=O)O)c1ccc(N(C)c2nc(C(F)(F)F)co2)cc1 [Compound 20, (2S)-2-(4-{Methyl[4-(trifluoromethyl)-1,3-oxazol-2-yl]amino}phenyl)propanoic acid] | 44 ± 7 | 47 ± 8 | 
CC(C(=O)O)c1ccc(Nc2nc(C(F)(F)F)co2)cc1 (stereo not drawn) [Compound 18, 2-{4-[(4-Trifluoromethyl)-oxazol-2-yl]amino}phenyl propionic] | 60 ± 9 |  | inhibition at 0.01 µM [2, 4]: 47 ± 12%
C[C@H](C(N)=O)c1ccc(N(C)c2nc(C(F)(F)F)co2)cc1 [Compound 23, (2S)-2-(4-{Methyl-[4-(trifluoromethyl)-1,3-oxazol-2-yl]amino}phenyl)propanamide] | 39 ± 2 | 45 ± 13 | 
CC(C(=O)O)c1ccc(Nc2nc(C(C)(C)C)cs2)cc1 (stereo not drawn) [Compound 6, 2-{4-[(4-tert-Butyl-1,3-thiazol-2-yl)amino]phenyl}propanoic acid] | 36 ± 10 |  | inhibition at 0.01 µM [2, 4]: 55 ± 10%
C[C@H](NC(=O)[C@@H](C)c1ccc(Nc2nc(C(F)(F)F)co2)cc1)C(N)=O [Compound 25, (2S)—N-[(1S)-2-Amino-1-methyl-2-oxoethyl]-2-(4-{[4-(trifluoromethyl)-1,3-oxazol-2-yl]amino}phenyl) propanamide] | 39 ± 14 | 46 ± 12 | 
CC(C(=O)O)c1ccc(Nc2nc(C(F)(F)F)cs2)cc1 (stereo not drawn) [Compound 1, 2-(4-{[4-(Trifluoromethyl)-1,3-thiazol-2-yl]amino}phenyl)propanoic acid] | 40 ± 6 |  | inhibition at 0.01 µM [2, 4]: 43 ± 7%
C[C@H](C(=O)N[C@H](C)C(=O)O)c1ccc(Nc2nc(C(F)(F)F)cs2)cc1 [Compound 16, (2R)-2-{[(2S)-2-(4-{[4-(Trifluoromethyl)-1,3-thiazol-2-yl]amino}phenyl)propanoyl]amino}propanoic acid] | 30 ± 15 | 42 ± 7 | 
C[C@H](C(=O)O)c1ccc(Nc2nc(C(F)(F)F)co2)cc1 [Compound 19, (2S)-2-(4-{[4-(Trifluoromethyl)-1,3-oxazol-2-yl]amino}phenyl)propanoic acid] | 36 ± 11 | 44 ± 10 | 

— patent US8624036B2, “2-aryl-propionic acids and derivatives and pharmaceutical compositions containing them” (Dompe S.p.A., priority 2008, dated 2014)
